Values of other authors in patent publication US20060165808A1, “Microcapsules for the delayed, controlled release of perindopril” (priority 2002, published 2006).

CCC[C@H](N[C@@H](C)C(=O)N1[C@H](C(=O)O)C[C@@H]2CCCC[C@@H]21)C(=O)OCC [perindopril]
solubility in aqueous media: very high degree of solubility
